IC50 data for 52 molecules are collected here from US7517998B2, “Non nucleoside reverse transcriptase inhibitors” (priority 2004, dated 2009).

The target in the assay is T1, K103NNY181C mutant reverse transcriptase (Human immunodeficiency virus type 1 group M subtype B, UniProt P04585, K690N/Y768C).
T1 construct: mutations that occur in the reverse transcriptase segment of the pol gene
The experiment in a line: Reverse transcriptase enzymatic assay (PicoGreen), K103N/Y181C mutant RT. Conditions: enzymatic assay of Example 24; for pIC50: IC50 mut. In kind it is biochemical, HIV-1. On the procedure: The enzymatic assay employed is described as follows: The reverse transcriptase (RT) enzyme assay has been adapted to a 96-well microtiter plate format and uses PicoGreen™ as a fluorescent intercalator. More explicitly, the HIV-1 RT enzyme was thawed and appropriately diluted into Tris/HCl 50 mM pH 7.8 containing NaCl 60 mM, MgCl2.6H2O 2 mM, DTT 6 mM, GSH 2 mM and 0.02% w/v Chaps to give ≈10 nM enzyme. To 10 μL of this enzyme solution was added 10 μL of inhibitor solution (40 μM to 2.032 nM inhibitor in the same assay buffer as above containing 4% v/v DMSO). The plate was pre-incubated for 15 minutes at room temperature before proceeding to the next step. In this pre-incubation step, the highest and lowest inhibitor concentrations were 20 μM and 1.016 nM respectively and the concentration of DMSO was 2% v/v. Then the enzymatic reaction was initiated by addition of 20 μL of substrate solution. The final reaction mixture contained Tris/HCl 50 mM pH 7.8, NaCl 60 mM, MgCl2.6H2O 2 mM, DTT 6 mM, GSH 2 mM, CHAPS 0.02% w/v, DMSO 1% v/v, poly rC 45 nM, dG15 4.5 nM, dGTP 3.6 μM, and 2.5 nM enzyme. In this incubation step, the highest and lowest inhibitor concentrations were 10 μM and 0.508 nM respectively. After addition of the substrate cocktail, the plate was covered with a plastic seal and incubated for 50 minutes at 37° C. in a dry incubator. The reaction was then quenched by addition of 5 μL of EDTA 0.5 M. The plate was shaken for 30 seconds at medium speed and incubated for 5 minutes at room temperature. Then 160 μL of PicoGreen™ 1:400 dilution from commercial stock (diluted in Tris 20 mM pH 7.5 with EDTA 1 mM) was added and the plate was shaken for 30 seconds and incubated for 10 minutes at room temperature. The plate was then analyzed using a POLARstar Galaxy fluorometer (BMG Labtechnologies) with λex and λem of 485 nm and 520 nm respectively. Each well was read for 1.25 second. Each row contained at its extremities a blank and a control well.

The mark [1] stands for this setting: K103N/Y181C mutant reverse transcriptase.

pIC50: −log10 of the molar value.

Molecule `CC(C)(C)c1ccc(-n2nnnc2SCC(=O)Nc2ccc(NC(=O)Cc3cccc[n+]3[O-])cc2Cl)c(Cl)c1` [Compound 7047] yielded a half-maximal inhibitory concentration (IC50) (IC50 mut (nM), mutant (K103N/Y181C) reverse transcriptase) of 43.5 nM. As for `CC(C)(C)c1ccc(-n2nnnc2SCC(=O)Nc2ccc(C(=O)NCc3ccco3)cc2Cl)c(Cl)c1` [Compound 6003], the pIC50 (mutant reverse transcriptase) is 7.89. Still for that read-out and setting: as for `CC(C)(C)c1ccc(-n2nnnc2SCC(=O)Nc2ccc(C(=O)NCCN3CCOCC3)cc2Cl)c(Cl)c1` [Compound 6028], the figure is 7.26; as for `O=C(O)Cc1ccc(-c2ccc(NC(=O)CSc3nnnn3-c3ccc4ccccc4c3Cl)c(Cl)c2)cc1` [Compound 2030], 7.19. On the same count and under the same terms, as for `COC(=O)Cc1cccc(-c2ccc(NC(=O)CSc3nnnn3-c3ccc(C)cc3Cl)c(Cl)c2)c1` [Compound 3002], the figure is 6.92; as for `CC(C)(C)c1ccc(-n2nnnc2SCC(=O)Nc2ccc(C(=O)Nc3ccc(CC(=O)O)cc3)cc2Cl)c(Cl)c1` [Compound 6001], 7.16; as for `O=C(CSc1nnnn1-c1ccc(C2CC2)cc1Cl)Nc1ccc(C(=O)NCc2cccc[n+]2[O-])cc1Cl` [Compound 6038], 7.19.

For `Cc1ccc(-n2nnnc2SCC(=O)Nc2ccc(-c3nnn[nH]3)cc2Cl)c(Cl)c1` [Compound 3019], the pIC50 (mutant reverse transcriptase) was 6.27. The same measure, in the same setting: as for `CCN(CC)CCOc1ccc(-c2ccc(NC(=O)CSc3nnnn3-c3ccc(C(C)(C)C)cc3Cl)c(Cl)c2)cc1` [Compound 2024], the figure is 7.59; as for `O=C(CSc1nnnn1-c1ccc(C2CC2)cc1Cl)Nc1ccc(-c2ccc(OCCN3CCCCC3)cc2)c(F)c1Cl` [Compound 2051], 7.52.

For the setting “mutant reverse transcriptase”, `Cc1ccc(-c2cn[nH]c2OCC(=O)Nc2ccc(-c3ccc(CC(=O)O)cc3)cc2Cl)c(Cl)c1` [Compound 1010] showed a pIC50 of 6.81.

Molecule `CN(C)CCCNC(=O)C(C)(C)C#Cc1ccc(NC(=O)CSc2nnnn2-c2ccc(C3CC3)cc2Cl)c(Cl)c1` [Compound 4145] showed a pIC50 under setting [1] of 7.32.

In the case of `CC(C)(C#Cc1ccc(NC(=O)CSc2nnnn2-c2cc(C3CC3)ccc2Cl)c(Cl)c1)NC(=O)CN` [Compound 4214], the pIC50 under setting [1] was 7.71. The molecule `Cc1ccc(-n2nccc2SCC(=O)Nc2ccc(-c3ccc(CC(=O)O)cc3)cc2Cl)c(Cl)c1` [Compound 1004] showed a pIC50 (mutant reverse transcriptase) of 6.38. Regarding `CC(C)(C)c1ccc(-n2nnnc2SCC(=O)Nc2ccc(-c3ccc(OCCN4CC[C@@H](O)C4)cc3)cc2Cl)c(Cl)c1` [Compound 2041], where the note is “mutant reverse transcriptase”, the pIC50 was 7.55. On the same count and under the same terms, as for `CN(CCc1cc[n+]([O-])cc1)C(=O)COc1ccc(NC(=O)CSc2nnnn2-c2ccc(C3CC3)cc2Cl)c(Cl)c1` [Compound 5041], the figure is 6.88. On to `CC(C)(C#Cc1ccc(NC(=O)CSc2nnnn2-c2ccc(C(C)(C)C)cc2Cl)c(Cl)c1)OCC(=O)Nc1ccccc1` [Compound 4044], for which, under setting [1], the pIC50 is 6.53.

Regarding `CC(C)(C)c1ccc(-n2nnnc2SCC(=O)Nc2ccc(OCC(=O)Nc3cccc(C(=O)O)c3)cc2Cl)c(Cl)c1` [Compound 5022], the pIC50 (mutant reverse transcriptase) is 6.97. In the case of `CC(C)(C#Cc1ccc(NC(=O)CSc2nnnn2-c2ccc(C3CC3)cc2Cl)c(Cl)c1)C(=O)NS(=O)(=O)c1ccccc1` [Compound 4183], the pIC50 under setting [1] was 7.21. `CC(C)(C#Cc1ccc(NC(=O)CSc2nnnn2-c2ccccc2Cl)c(Cl)c1)C(=O)O` [Compound 4207] showed a pIC50 under setting [1] of 6.35. On the same count and under the same terms, as for `CC(C)(C#Cc1ccc(NC(=O)CSc2nnnn2-c2ccc(C3CC3)cc2Cl)c(Cl)c1)NCC1CC1` [Compound 4128], the figure is 7.57; as for `COC(=O)C(C)(C)C#Cc1ccc(NC(=O)CSc2nnnn2-c2cc(C(F)(F)F)ccc2Cl)c(Cl)c1` [Compound 4077], 7.35. Consider `CC(C)(C)c1ccc(-n2nnnc2SCC(=O)Nc2ccc(-c3ccc(OCCN4CCC(C(=O)O)CC4)cc3)cc2Cl)c(Cl)c1` [Compound 2040], for which the pIC50 (mutant reverse transcriptase) was 7.44. Consider `CC(C)(C)c1ccc(-n2nnnc2SCC(=O)Nc2ccc(C(=O)NN3CCOCC3)cc2Cl)c(Cl)c1` [Compound 6007], for which, where the note is “mutant reverse transcriptase”, the pIC50 was 7.52. For the molecule `CN(C)CCCC(=O)NC(C)(C)C#Cc1ccc(NC(=O)CSc2nnnn2-c2ccc(C3CC3)cc2Cl)c(Cl)c1` [Compound 4108], the pIC50 under setting [1] was 7.57. Same read-out and setting: as for `CC(C)(C#Cc1ccc(NC(=O)CSc2nnnn2-c2ccc(C(C)(C)C)cc2Cl)c(Cl)c1)OCC(=O)Nc1cnccn1` [Compound 4040], the figure is 7.24; as for `CC(C)(C#Cc1ccc(NC(=O)CSc2nnnn2-c2ccc(C3CC3)cc2Cl)c(Cl)c1)OCCO` [Compound 4098], 7.78; as for `Cc1cc(C)c(-n2nnnc2SCC(=O)Nc2ccc(C#CC(C)(C)O)cc2Cl)c(Cl)c1` [Compound 4007], 7.42. `CC(C)(C)c1ccc(-n2nnnc2SCC(=O)Nc2ccc(C(=O)Nc3cccc(C(=O)O)c3)cc2Cl)c(Cl)c1` [Compound 6021] gave a pIC50 (mutant reverse transcriptase) of 7.24. The same measure, in the same setting: as for `CC(C)(C)c1ccc(-n2nnnc2SCC(=O)Nc2ccc(OCC(=O)NCCc3ccncc3)cc2Cl)c(Cl)c1` [Compound 5024], the figure is 7.18. `CC(C)(C#Cc1ccc(NC(=O)CSc2nnnn2-c2ccc(CC3CC3)cc2Cl)c(Cl)c1)C(=O)NCCCN1CCCC1=O` [Compound 4244] showed a pIC50 under setting [1] of 6.66. On the same count and under the same terms, as for `CC(C)(C)c1ccc(-n2nnnc2SCC(=O)Nc2ccc(C#CCCCOC(N)=O)cc2Cl)c(Cl)c1` [Compound 4061], the figure is 7.80; as for `CC(C)(N)C#Cc1ccc(NC(=O)CSc2nnnn2-c2cc(C3CC3)cc(C(F)(F)F)c2Cl)c(Cl)c1F` [Compound 4250], 7.29; as for `CC(C)(C)c1ccc(-n2nnnc2SCC(=O)Nc2ccc(C#CC3(O)CCC3)cc2Cl)c(Cl)c1` [Compound 4062], 7.28. Still for that read-out and setting: then `CCC(N)(C#Cc1ccc(NC(=O)CSc2nnnn2-c2ccc(C3CC3)cc2Cl)c(Cl)c1)CC` [Compound 4068], with 7.41. `O=C(CSc1nnnn1-c1cc(C(F)(F)F)ccc1Cl)Nc1ccc(-c2ccc(OCCN3CCCCC3)cc2)cc1Cl` [Compound 2049] gave a pIC50 (mutant reverse transcriptase) of 7.27.

Under “mutant reverse transcriptase”, `CC(C)(C)c1ccc(-n2nnnc2SCC(=O)Nc2ccc(-c3ncc[nH]3)cc2Cl)c(Cl)c1` [Compound 3029] showed a pIC50 of 7.12.

Under “mutant reverse transcriptase”, `CC(C)(C)c1ccc(-n2nnnc2SCC(=O)Nc2ccc(OCC(=O)NCCO)cc2Cl)c(Cl)c1` [Compound 5015] had a pIC50 of 6.80. As to `CC(C)(C#Cc1ccc(NC(=O)CSc2nnnn2-c2cc(C(C)(C)C)cc(Br)c2Cl)c(Cl)c1)NC(=O)CN1CCC(C(=O)O)CC1` [Compound 4226], the pIC50 under setting [1] was 7.28. Under “mutant reverse transcriptase”, `Cc1ccc(-c2c(OCC(=O)Nc3ccc(C#CC(C)(C)C(=O)O)cc3Cl)n[nH]c2C)c(Cl)c1` [Compound 1015] had a pIC50 of 7.32. Molecule `CC(C)(C#Cc1ccc(NC(=O)CSc2nnnn2-c2cc(Br)ccc2Cl)c(Cl)c1)C(=O)O` [Compound 4218] gave a pIC50 under setting [1] of 7.50. `CC(C)(C)c1ccc(-n2nnnc2SCC(=O)Nc2ccc(C(=O)Nc3ccccc3O)cc2Cl)c(Cl)c1` [Compound 6011] showed a pIC50 (mutant reverse transcriptase) of 7.59.

Molecule `O=C(CSc1nnnn1-c1ccc(C2CC2)cc1Cl)Nc1ccc(C(=O)NS(=O)(=O)c2ccccc2)cc1Cl` [Compound 6037] gave a pIC50 (mutant reverse transcriptase) of 6.95.

Regarding `Cc1ccc(-n2nccc2OCC(=O)Nc2ccc(-c3ccc(CC(=O)O)cc3)cc2Cl)c(Cl)c1` [Compound 1003], the pIC50 (mutant reverse transcriptase) is 6.11. `CN(C)c1ccc(CNC(=O)C(C)(C)C#Cc2ccc(NC(=O)CSc3nnnn3-c3ccc(C4CC4)cc3Cl)c(Cl)c2)cc1` [Compound 4153]: the pIC50 under setting [1] was 6.90. In the case of `O=C(CSc1nnnn1-c1ccc(C2CC2)cc1Cl)Nc1ccc(OCC(=O)N2CCC(C(=O)O)CC2)cc1Cl` [Compound 5032], where the note is “mutant reverse transcriptase”, the pIC50 was 7.29. Same read-out and setting: as for `CSCCC(NC(=O)c1ccc(NC(=O)CSc2nnnn2-c2ccc(C(C)(C)C)cc2Cl)c(Cl)c1)C(=O)O` (stereo not shown) [Compound 6025], the figure is 7.39. With `CC(C)(C#Cc1ccc(NC(=O)CSc2nnnn2-c2ccc(C3CC3)cc2Cl)c(Cl)c1)NCC(N)=O` [Compound 4231], the pIC50 under setting [1] was 7.80. Under “mutant reverse transcriptase”, `Cc1ccc(-n2c(C)cnc2SCC(=O)Nc2ccc(-c3ccc(CC(=O)O)cc3)cc2Cl)c(Cl)c1` [Compound 1009] showed a pIC50 of 6.26. The same measure, in the same setting: as for `CC(C)(C)c1ccc(-n2nnnc2SCC(=O)Nc2ccc(C(=O)NCCc3ccc(O)cc3)cc2Cl)c(Cl)c1` [Compound 6017], the figure is 7.48. `CC(C)(C#Cc1ccc(NC(=O)CSc2nnnn2-c2cc(C(F)(F)F)cc(Cl)c2Cl)c(Cl)c1)NC(=O)c1cc[n+]([O-])cc1` [Compound 4210] gave a pIC50 under setting [1] of 7.81. Consider `O=C(O)Cc1ccc(-c2ccc(NC(=O)CSc3nnnn3-c3ccc(OC(F)(F)F)cc3Cl)c(Cl)c2)cc1` [Compound 2034], for which the pIC50 (mutant reverse transcriptase) is 6.75.

Broadly, the IC50 is the concentration that gives 50% inhibition. Lower therefore signals higher potency. As a reminder, the pIC50 is −log10 of the IC50, conventionally taken in molar units. Lower therefore signals a large IC50.
